We go through ten compounds from article PMC11157491, “Novel Alaninamide Derivatives with Drug-like Potential for Development as Antiseizure and Antinociceptive Therapies—In Vitro and In Vivo Characterization” (ACS Chemical Neuroscience, 2024).

A word on the inhibition: it is the change of the read-out against control, counted positive when it falls. A word on the melting point: it is the temperature of the solid-liquid transition.

Data set [1] deals with mice. The experiment in a line: Maximal electroshock (MES) seizure test. In kind it is in vivo. To be noted: Mus musculus, ip; 100 mg/kg i.p., 0.5 h; read-out: MES: number of mice protected/number of mice tested (converted). From the text:
(§1) Identification and profiling of new ASM candidate compounds are still largely based on predictive animal models of seizures/epilepsy, while a range of in silico and in vitro approaches (i.e., molecular modeling or high throughput screening, etc.) are increasingly used in the early stages of ASM discovery.[31] The Epilepsy Therapy Screening Program (ETSP) of the National Institute of Neurological Disorders and Stroke (NIH, Bethesda, MD) has enabled the discovery of several approved ASMs by focusing on the in vivo testing of compounds synthesized by both academic laboratories and industry.[32] The ETSP provides a broad panel of seizure tests (ca. 30 rodent models), but a subset of them is used for the initial screening of new compounds with potential antiseizure activity. The routinely used seizure models include: (i) the MES test, which is an experimental model of tonic–clonic seizures, (ii) the 6 Hz model (32 mA) of focal seizures, and (iii) the scPTZ model of generalized absence or myoclonic seizures.[33],[34] Consequently, in the current studies, all final compounds 21–36 and 45–48 were initially studied in the MES and the 6 Hz (32 mA) seizure models after intraperitoneal (i.p.) administration at a screening dose of 100 mg/kg in mice at a time point of 0.5 h (the screening group consisted of four mice, and the results obtained are summarized in Table S1).
(§2) These parameters were then used to calculate the protective indexes (PIs, PI = TD50/ED50), which describe the therapeutics window of potential drug candidates. The ED50, TD50, and PI values for the tested compounds together with data of their chemical prototypes KA-11 and KJ-5 and reference ASMs are summarized in Table 2.
(§3) The adult male Albino Swiss mice weighed between 22 and 26 g were used in the in vivo studies. They were housed under standardized housing conditions in colony cages and had free access to food as well as tap water. The animals were left to adapt under laboratory conditions for 7 days. All procedures involving animals and their care were performed in accordance with the current European Community and Polish legislation on animal experimentation.
(§4) In the initial screening studies, four mice per group were randomly assigned to each experimental group (each mouse was used only once). To evaluate the ED50 or TD50 values, four groups consisting of eight animals were injected with various doses of tested compounds. The protective indexes (PIs) for the compounds investigated and reference ASMs were calculated by dividing the TD50 value, as determined in the chimney test, by the respective ED50 value, as determined in the MES, scPTZ, or 6 Hz (32 or 44 mA) tests (PI = TD50/ED50). The PIs are a measure of the potential therapeutic window of the tested agent.
(§5) All substances were suspended in Tween 80 (1% aqueous solution) and administered i.p. as a single injection at a dose of 10 mL/kg. On each day of experimentation, fresh solutions were prepared. The detailed in vivo procedures are described elsewhere: the maximal electroshock seizure test (MES),[60] the subcutaneous pentylenetetrazole seizure test (scPTZ),[61] the 6 Hz psychomotor seizure model (32 and 44 mA),[62] and the chimney test.[63] The reference ASMs were purchased from commercial suppliers: VPA (Sigma-Aldrich, St. Louis, MO), LCS, and LEV (UCB Pharma, Braine l’Alleud, Belgium).

The subject of data set [2] is mice. Kind of data set: 6 Hz (32 mA) psychomotor seizure model. It counts as in vivo. Conditions: Mus musculus, ip, 100 mg/kg i.p., 0.5 h.
Excerpt: as §1, §2, §3, §4, §5

The target in another data set is T1, TRPV1 (VR1) (h) (Homo sapiens, UniProt Q8NER1).
T1 construct: Eurofins (contract assay)
The experiment in a line: TRPV1 antagonist effect functional assay. It counts as cell-based. Conditions: 10 μM, human recombinant CHO cells; read-out: % inhibition of control agonist response. The procedure:
For many years, the TRPV1 channel, permeable to calcium and sodium ions, has been recognized as a promising molecular target for novel analgesics.[19] […] Therefore, bearing in mind the involvement of TRPV1 in pain sensation and potentially in seizure induction, in the next step of the in vitro studies, the TRPV1 antagonist activity was determined for all compounds obtained (Table 6).
Binding/functional studies were carried out commercially in Eurofins Laboratories (Poitiers, France) and Eurofins Panlabs Discovery Services Taiwan, Ltd. (New Taipei City, Taiwan) using testing procedures that were reported previously (for details, see Table S2).
Table S2. Radioligand binding and functional assays. […]
TRPV1 (VR1) (h) (antagonist effect) […]
Assays were performed commercially in Eurofins Laboratories ( Poitiers, France) or Eurofins Panlabs Discovery Services
Taiwan, Ltd. (New Taipei City, Taiwan).

Setting [3] is: read-out: 6 Hz (32 mA): number of mice protected/number of mice tested (converted).
Setting [4] is: four mice, read-out: protection in 6 Hz (32 mA) screening.

T1 sequence (Q8NER1 whole entry): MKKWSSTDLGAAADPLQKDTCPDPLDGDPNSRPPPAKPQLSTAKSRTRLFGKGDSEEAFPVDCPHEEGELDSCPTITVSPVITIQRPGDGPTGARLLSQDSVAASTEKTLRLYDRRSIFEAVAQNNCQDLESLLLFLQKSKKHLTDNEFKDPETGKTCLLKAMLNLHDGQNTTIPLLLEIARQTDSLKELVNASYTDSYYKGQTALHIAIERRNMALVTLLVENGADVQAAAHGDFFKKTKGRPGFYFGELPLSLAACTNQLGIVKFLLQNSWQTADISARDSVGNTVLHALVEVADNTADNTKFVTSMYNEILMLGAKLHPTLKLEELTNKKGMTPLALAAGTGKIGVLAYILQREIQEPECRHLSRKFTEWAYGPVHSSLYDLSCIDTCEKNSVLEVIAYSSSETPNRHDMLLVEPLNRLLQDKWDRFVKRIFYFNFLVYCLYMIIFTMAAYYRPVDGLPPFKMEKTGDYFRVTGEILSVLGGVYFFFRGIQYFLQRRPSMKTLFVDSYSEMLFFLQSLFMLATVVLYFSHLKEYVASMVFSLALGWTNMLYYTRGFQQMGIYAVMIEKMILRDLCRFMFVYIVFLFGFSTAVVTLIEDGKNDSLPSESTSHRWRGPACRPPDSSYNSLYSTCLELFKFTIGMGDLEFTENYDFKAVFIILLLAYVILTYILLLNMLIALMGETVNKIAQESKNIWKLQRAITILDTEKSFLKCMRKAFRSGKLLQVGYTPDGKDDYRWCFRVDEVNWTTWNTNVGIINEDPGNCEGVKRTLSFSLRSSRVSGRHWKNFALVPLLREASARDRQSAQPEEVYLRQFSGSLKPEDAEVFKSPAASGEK

Take `CCNC(=O)NC(C)C(=O)N1CCN(c2cccc(Cl)c2)CC1` (stereo not shown) [Compound 33, 1-(1-(4-(3-Chlorophenyl)piperazin-1-yl)-1-oxopropan-2-yl)-3-ethylurea]: the melting point was 145.1 to 146.2 °C. Moreover, the responders at 100 mg/kg with mice [1] was 0%. For the same compound, the responders at 100 mg/kg with mice [2] (setting [3]) was 50%. In addition, at TRPV1 (VR1) (h), the inhibition at 10 µM is -11.7%.

In turn, `CC(=O)NC(C)C(=O)NC1CCN(c2ccccc2)C1` (stereo not shown) [Compound 45, 2-Acetamido-N-(1-phenylpyrrolidin-3-yl)propanamide] displayed a melting point of 176.6 to 177.8 °C. Also, the responders at 100 mg/kg with mice [1] is 0%. The responders at 100 mg/kg in the data set on mice [2] (setting [3]) is 0%. The inhibition at 10 µM on TRPV1 (VR1) (h) was -11.6%.

With `CC(C)NC(=O)NC(C)C(=O)N1CCN(c2cccc(Cl)c2)CC1` (stereo not shown) [Compound 35, 1-(1-(4-(3-Chlorophenyl)piperazin-1-yl)-1-oxopropan-2-yl)-3-isopropylurea], the melting point is 147.4 to 148.2 °C. Also, the responders at 100 mg/kg in the data set on mice [1] is 0%. The responders at 100 mg/kg with mice [2] (setting [3]) is 50%. In addition, at TRPV1 (VR1) (h), the inhibition at 10 µM was -11.9%.

Consider `CC(=O)NC(C)C(=O)NC1CCN(c2cccc(SC(F)(F)F)c2)C1` (stereo not shown) [Compound 48, 2-Acetamido-N-(1-(3-((trifluoromethyl)thio)phenyl)pyrrolidin-3-yl)propanamide], for which the melting point is 162.2 to 163.3 °C. Further, the responders at 100 mg/kg with mice [1] was 0%. For the same compound, in the data set on mice [2] (setting [4]), the responders at 100 mg/kg worked out at 50%. The responders at 100 mg/kg with mice [2] (setting [3]) was 50%. In addition, the inhibition at 10 µM on TRPV1 (VR1) (h) was determined as 4.2%.

Compound `CC(=O)NC(C)C(=O)NC1CCN(c2cccc(C(F)(F)F)c2)C1` (stereo not shown) [Compound 46, 2-Acetamido-N-(1-(3-(trifluoromethyl)phenyl)pyrrolidin-3-yl)propanamide] returned a melting point of 162.8 to 163.7 °C. Further, the responders at 100 mg/kg in the data set on mice [1] was 0%. In the data set with mice [2] (setting [3]), the responders at 100 mg/kg was 0%. Further, the inhibition at 10 µM at TRPV1 (VR1) (h) was -10%.

Turning to `CC(=O)NC(C)C(=O)N1CCN(c2ccccc2)CC1` (stereo not shown) [Compound 21, N-(1-oxo-1-(4-Phenylpiperazin-1-yl)propan-2-yl)acetamide], the melting point fell in the range of 113.6 to 114.9 °C. In the data set with mice [1], the responders at 100 mg/kg is 0%. Also, the responders at 100 mg/kg in the data set with mice [2] (setting [4]) is 25%. Further, the responders at 100 mg/kg in the data set with mice [2] (setting [3]) is 25%. Moreover, the inhibition at 10 µM at TRPV1 (VR1) (h) turned out to be 1.6%.

`CC(=O)NC(C)C(=O)N1CCN(c2ccc(Cl)cc2)CC1` (stereo not shown) [Compound 23, N-(1-(4-(4-Chlorophenyl)piperazin-1-yl)-1-oxopropan-2-yl)acetamide] gave a melting point of 144.9 to 145.8 °C. Also, the responders at 100 mg/kg in the data set with mice [1] was 0%. Also, in the data set on mice [2] (setting [3]), the responders at 100 mg/kg was 0%. Moreover, on TRPV1 (VR1) (h), the inhibition at 10 µM was -4.6%.

For `CC(NC(=O)c1ccccc1)C(=O)N1CCN(c2cccc(Cl)c2)CC1` (stereo not shown) [Compound 31, N-(1-(4-(3-Chlorophenyl)piperazin-1-yl)-1-oxopropan-2-yl)benzamide], the melting point lay within 177.8 to 178.5 °C. Moreover, the responders at 100 mg/kg in the data set on mice [1] is 0%. The responders at 100 mg/kg in the data set on mice [2] (setting [3]) was 0%. Besides, at TRPV1 (VR1) (h), the inhibition at 10 µM was 4.6%.

Turning to `CC(=O)NC(C)C(=O)NC1CCN(c2cccc(OC(F)(F)F)c2)C1` (stereo not shown) [Compound 47, 2-Acetamido-N-(1-(3-(trifluoromethoxy)phenyl)pyrrolidin-3-yl)propanamide], the melting point lay in the range of 164.8 to 165.9 °C. In addition, the responders at 100 mg/kg in the data set with mice [1] was 0%. In the data set with mice [2] (setting [4]), the responders at 100 mg/kg turned out to be 50%. For the same compound, the responders at 100 mg/kg in the data set with mice [2] (setting [3]) was 50%. Besides, the inhibition at 10 µM on TRPV1 (VR1) (h) is -8.3%.

The compound `CCNC(=O)NC(C)C(=O)N1CCN(c2cccc(C(F)(F)F)c2)CC1` (stereo not shown) [Compound 34, 1-Ethyl-3-(1-oxo-1-(4-(3-(trifluoromethyl)phenyl)piperazin-1-yl)propan-2-yl)urea] had a melting point of 136.4 to 137.3 °C. Also, the responders at 100 mg/kg with mice [1] was 0%. Besides, in the data set on mice [2] (setting [3]), the responders at 100 mg/kg was 50%. Also, at TRPV1 (VR1) (h), the inhibition at 10 µM is -5.3%.
